From US9744174B2 (DemeRx, Inc., priority 2013, dated 2017)
“Also recorded” adds a separate entry of the source.

How the values were obtained:
[1] = varies with the pH of the urine; cited from earlier work
[2] = Noribogaine-methadone interaction study: mortality and postdose observations after oral dosing; settings: male, Sprague Dawley, rat, in vivo, po, methadone LD50, rats, oral
male Sprague Dawley rats = assay: as above; settings: rats; for Number Dead after Methadone: 10 dosed
[3] = Ascending single-dose pharmacokinetics of noribogaine and noribogaine glucuronide (plasma, urine; LCMSMS); settings: for AUC0-216 / AUC0-∞ / Cmax / Tmax / t1/2 / CL/F: mean (SD)
[4] = test system: healthy, drug-free male volunteers; assay: Safety and tolerability: adverse events, vital signs, ECG; assay type: in vivo, human
Description: (§1) Safety and tolerability of noribogaine were tested in the group of volunteers from Example 2. […] Safety evaluations included clinical monitoring, recording of adverse events (AEs), safety laboratory tests, vital signs, ECG telemetry from −2 h to 6 h after dosing, and 12-lead electrocardiograms (ECGs) up to 216 hours post-dosing.

[5] = test system: opioid-dependent participants; assay: QT interval prolongation in the efficacy trial; assay type: in vivo, human
Description: (§2) The efficacy of noribogaine in humans was evaluated in opioid-dependent participants in a randomized, placebo-controlled, double-blind trial. […] See U.S. Provisional Application No. 61/852,485, filed Mar. 15, 2013, which is incorporated herein by reference in its entirety.
(§3) In the first cohort, six patients were orally administered a single dose of 60 mg noribogaine, and three patients received placebo. In the second cohort, five patients were orally administered a single dose of 120 mg noribogaine, and three patients received placebo.

[6] = test system: healthy, drug-free male volunteers; assay: Cold pressor test (analgesic effect); assay type: in vivo, human; settings: single oral 3-60 mg; duration of hand immersion and VAS pain scores vs placebo
Description: Analgesic effect was assessed based on duration of hand immersion in ice water and on visual analog scale (VAS) pain scores upon hand removal from the water bath.
as §1

[7] = test system: opioid-dependent participants; assay: Efficacy trial: time to resumption of opioid substitution treatment (OST); assay type: in vivo, human
Description: as §2, §3

mu receptor = settings: Pearl et al., Brain Research, 675:342-344 (1995); read-out: affinity constant (K value) for the mu receptor; cited from earlier work
[8] = test system: healthy, drug-free male volunteers; assay: Pupillometry (pupillary miosis) after single oral dose; assay type: in vivo, human; settings: single oral 3, 10, 30 or 60 mg, up to 216 hours post-dosing
Description: Pulse oximetry and capnography data were collected continuously using a GE Carescape B650 monitoring system from 2 hours prior to dosing and until six hours after dosing, and thereafter at 12, 24, 48 and 72 hours post-dosing. […] Pupillary miosis was assessed by pupillometry.

[9] = plasma noribogaine glucuronide after single oral 30 mg noribogaine
[10] = plasma noribogaine glucuronide after single oral 60 mg noribogaine
[11] = plasma noribogaine, single oral 3 mg
[12] = plasma noribogaine, single oral 10 mg
[13] = plasma noribogaine, single oral 30 mg
[14] = plasma noribogaine, single oral 60 mg
[15] = oral, noribogaine 50 mg/kg then methadone 0 mg/kg (vehicle)
[16] = oral, noribogaine 150 mg/kg then methadone 0 mg/kg (vehicle)

Question: With `CC=C1N(C)C(C)CC1(c1ccccc1)c1ccccc1` (centres unmarked) [EDDP, 2-ethylidene-1.5-dimethyl-3.3diphenylpyrrolidine] as the molecule, how does the “Urinary excretion (percentage of a dose)” value [1] read?
Answer: 3-25%

Question: What does the source list for `CCC(=O)C(CC(C)N(C)C)(c1ccccc1)c1ccccc1` (centres unmarked) [Methadone, reference compound]?
Answer: LD50 ([2]; after 0 mg/kg of noribogaine): 68.2 mg/kg; LD50 ([2]; after 50 mg/kg of noribogaine): 29.7 mg/kg; LD50 ([2]; after 150 mg/kg of noribogaine): 8.86 mg/kg; Number Dead after Methadone (male Sprague Dawley rats; oral, noribogaine 0 mg/kg then methadone 1 mg/kg (table; b148: 10 mg/kg)): 0; Number Dead after Methadone (male Sprague Dawley rats; oral, noribogaine 0 mg/kg then methadone 3 mg/kg (table; b148: 30 mg/kg)): 1; Number Dead after Methadone (male Sprague Dawley rats; oral, noribogaine 0 mg/kg then methadone 5 mg/kg (table; b148: 50 mg/kg)): 3; Persistence of slight languid behavior (male Sprague Dawley rats; oral, methadone alone at 10 mg/kg): 1.75 h; Postdose observations (male Sprague Dawley rats; oral, methadone alone at 50 mg/kg): prostrate, had tremors, shallow respirations; Persistence of adverse observations following the methadone dose (male Sprague Dawley rats; oral, methadone at doses of 30 and 50 mg/kg): 3 h; Postdose observations (male Sprague Dawley rats; oral, within one hour following methadone alone at 10 and 30 mg/kg): slight ataxia, salivation, hunched posture, and languid behavior; Urinary excretion (percentage of a dose) [1]: 5-50%

Question: For `CC[C@H]1C[C@@H]2C[C@H]3c4[nH]c5ccc(OC6OC(C(=O)O)C(O)C(O)C6O)cc5c4CCN(C2)[C@@H]13` (some centres unmarked) [Noribogaine glucuronide], which “Proportion of noribogaine glucuronide Cmax and AUC relative to noribogaine” value ([3]; both dose groups (30 mg, 60 mg)) is on record?
Answer: 3-4%

Question: What about the AUC0-216 [3, 9] of the same molecule?
Answer: 25.7 (9.1) ng · hr/ml

Question: And the “AUC0-∞” value [3, 9]?
Answer: 25.8 (9.3) ng · hr/ml

Question: What about the Cmax [3, 9] of the same molecule?
Answer: 1.8 (0.6) ng/ml

Question: And the Tmax [3, 9]?
Answer: 3.0 (0.6) hr

Question: And the t1/2 [3, 9]?
Answer: 20.6 (4.9) hr

Question: And the AUC0-216 [3, 10]?
Answer: 65.0 (21.5) ng · hr/ml

Question: What about the “AUC0-∞” value [3, 10] of the same molecule?
Answer: 67.1 (21.9) ng · hr/ml

Question: What about the Cmax [3, 10] of the same molecule?
Answer: 4.1 (1.2) ng/ml

Question: What about the Tmax [3, 10] of the same molecule?
Answer: 3.8 (1.2) hr

Question: And the t1/2 [3, 10]?
Answer: 23.1 (3.0) hr

Question: And the “Time of peak concentrations after noribogaine dosing” value ([3]; plasma noribogaine glucuronide, 30 mg and 60 mg dose groups)?
Answer: 3 to 4 h

Question: And the “Time by which detected in all subjects” value ([3]; plasma noribogaine glucuronide, 30 mg and 60 mg noribogaine dose groups)?
Answer: ≤ 0.75 h

Question: Which “Number of adverse events reported” value ([4]; 3 mg dose group, two subjects) does the source give for `CC[C@H]1C[C@H]2C[C@H]3c4[nH]c5ccc(O)cc5c4CCN(C2)[C@@H]13` [Noribogaine] here?
Answer: five

Question: What about the “Number of adverse events reported” value ([4]; 10 mg dose group, single subject) of the same molecule?
Answer: one

Question: What about the “Number of adverse events reported” value ([4]; 30 mg dose group, single subject) of the same molecule?
Answer: one

Question: And the “Adverse events, Mild” value ([4]; Dose 3 mg)?
Answer: Dizziness; also recorded: Epistaxis; also recorded: Headache; also recorded: Back pain

Question: And the “Adverse events, Moderate” value ([4]; Dose 3 mg)?
Answer: Headache

Question: What about the “Adverse events, Mild” value ([4]; Dose 10 mg) of the same molecule?
Answer: Headache

Question: And the “Adverse events, Mild” value ([4]; Dose 30 mg)?
Answer: Headache

Question: What about the “Single increase in QTcF” value ([4]; one subject dosed with 10 mg, 24 hours post-dosing) of the same molecule?
Answer: > 60 ms

Question: And the “Oximetry, capnography, respiratory rate” value ([4]; single oral 3-60 mg)?
Answer: no changes in oximetry or capnography, or changes in respiratory rate

Question: And the “Vital signs and safety laboratory tests” value ([4]; single oral 3-60 mg)?
Answer: no changes in vital signs or safety laboratory tests of note

Question: And the QTcF values ([4]; single oral 3-60 mg, at any time)?
Answer: ≤ 500 ms

Question: What about the “Change in the QT interval prolongation” value ([5]; 180 mg) of the same molecule?
Answer: above 30 ms

Question: And the “Mean prolongation of the QT interval” value ([5]; first cohort (60 mg noribogaine or placebo))?
Answer: less than 10 ms

Question: What about the “Mean prolongation of the QT interval” value ([5]; second cohort (120 mg noribogaine or placebo)) of the same molecule?
Answer: less than 40 ms

Question: What about the “Analgesic effect in the cold pressor test” value [6] of the same molecule?
Answer: no analgesic effect

Question: And the “Dose-proportionality of Cmax and AUC” value ([3]; noribogaine, 3-60 mg, linear regression)?
Answer: increased linearly with dose

Question: What about the “Time of peak concentrations after oral dosing” value ([3]; noribogaine, across dose groups 3-60 mg) of the same molecule?
Answer: 2 to 3 h

Question: What about the CL/F ([3]; noribogaine, single oral 3 mg) of the same molecule?
Answer: 41.4 (7.0) L/h

Question: And the CL/F ([3]; noribogaine, single oral 10 mg)?
Answer: 42.3 (12.0) L/h

Question: What about the CL/F ([3]; noribogaine, single oral 30 mg) of the same molecule?
Answer: 46.9 (16.4) L/h

Question: And the CL/F ([3]; noribogaine, single oral 60 mg)?
Answer: 34.0 (11.4) L/h

Question: What about the AUC0-216 [3, 11] of the same molecule?
Answer: 72.2 (13.2) ng · hr/ml

Question: What about the Cmax [3, 11] of the same molecule?
Answer: 5.2 (1.4) ng/ml

Question: And the Tmax [3, 11]?
Answer: 1.9 (0.6) hr

Question: And the t1/2 [3, 11]?
Answer: 40.9 (8.7) hr

Question: What about the AUC0-216 [3, 12] of the same molecule?
Answer: 251.4 (78.5) ng · hr/ml

Question: What about the Cmax [3, 12] of the same molecule?
Answer: 14.5 (2.1) ng/ml

Question: What about the Tmax [3, 12] of the same molecule?
Answer: 2.9 (1.8) hr

Question: What about the t1/2 [3, 12] of the same molecule?
Answer: 49.2 (11.5) hr

Question: What about the AUC0-216 [3, 13] of the same molecule?
Answer: 677.6 (221.1) ng · hr/ml

Question: What about the Tmax [3, 13] of the same molecule?
Answer: 1.8 (0.6) hr

Question: And the t1/2 [3, 13]?
Answer: 27.6 (7.0))^ hr

Question: What about the AUC0-216 [3, 14] of the same molecule?
Answer: 1935.4 (725.4) ng · hr/ml

Question: What about the Tmax [3, 14] of the same molecule?
Answer: 2.4 (0.6) hr

Question: And the t1/2 [3, 14]?
Answer: 29.1 (9.3) hr

Question: And the Therapeutic activity ([7]; 60 mg to 180 mg, inverted-U curve)?
Answer: therapeutic activity at all concentrations

Question: What about the “Estimated serum noribogaine level at which significant withdrawal symptoms return and OST is resumed” value ([7]; 120 mg presumed treated patients, estimated from FIG. 4 profile) of the same molecule?
Answer: 50 to 60 ng/mL

Question: What about the “Average time to resumption of OST” value ([7]; 180 mg, 6 presumed (imputed) noribogaine-treated patients) of the same molecule?
Answer: approximately 11.4 hours

Question: And the “Time to resumption of OST” value ([7]; (putatively) administered 60 mg noribogaine)?
Answer: 9.6 h

Question: And the “Average time to resumption of opioids” value ([7]; second cohort, blinded: single oral 120 mg noribogaine (5 patients) or placebo (3))?
Answer: approximately 22 hours

Question: What about the “Adverse effects, including hallucinatory effects” value ([7]; single oral 60 mg or 120 mg) of the same molecule?
Answer: No adverse effects

Question: And the Ki (mu receptor)?
Answer: 2.66 µM

Question: What about the “Number Dead after Methadone” value (male Sprague Dawley rats; [15]) of the same molecule?
Answer: 0

Question: What about the “Number Dead after Methadone” value (male Sprague Dawley rats; [16]) of the same molecule?
Answer: 0

Question: What about the “Number Dead after Methadone” value (male Sprague Dawley rats; oral, noribogaine 150 mg/kg then methadone 0 mg/kg (vehicle), listed as noribogaine) of the same molecule?
Answer: no deaths

Question: What about the Postdose observations (male Sprague Dawley rats; oral, approximately 5 hours following noribogaine at 50 mg/kg, a few animals) of the same molecule?
Answer: languid behavior and tremors involving the entire body

Question: What about the Postdose observations (male Sprague Dawley rats; oral, approximately 5 hours following noribogaine at 150 mg/kg) of the same molecule?
Answer: Salivation, languid behavior, and ataxia

Question: And the Postdose observations (male Sprague Dawley rats; oral, following noribogaine 50 and 150 mg/kg)?
Answer: slight ataxia, salivation (slight or severe), and hunched posture

Question: What about the “Percentage of animals with observations of ataxia and salivation” value (male Sprague Dawley rats; oral, noribogaine 50 mg/kg) of the same molecule?
Answer: 30-40%

Question: What about the “% Dead after Methadone” value (male Sprague Dawley rats; [15]) of the same molecule?
Answer: 0%

Question: What about the “Percentage of animals with observations of ataxia and salivation” value (male Sprague Dawley rats; oral, noribogaine 150 mg/kg) of the same molecule?
Answer: 60-70%

Question: And the “% Dead after Methadone” value (male Sprague Dawley rats; [16])?
Answer: 0%

Question: And the “Persistence of observations following dosing” value (male Sprague Dawley rats; oral, noribogaine 50 and 150 mg/kg, before methadone)?
Answer: up to 4 hours

Question: And the “Persistence of adverse observations following dosing” value (male Sprague Dawley rats; oral, noribogaine alone)?
Answer: 6.5 to 7 h

Question: What about the Mortality (male Sprague Dawley rats; oral, noribogaine at doses of 0, 50, and 150 mg/kg followed by the interaction article vehicle) of the same molecule?
Answer: no mortality

Question: What about the “Effect on mortality associated with oral methadone” value (male Sprague Dawley rats; oral noribogaine at doses of 50 and 150 mg/kg) of the same molecule?
Answer: potentiates the mortality

Question: And the “Pupillary constriction (pupil diameter)” value [8]?
Answer: no evidence of pupillary constriction

Question: For `CC[C@H]1CC2C[C@H]3c4[nH]c5ccc(OC)cc5c4CCN(C2)C13` [ibogaine, reference compound], which Ki (mu receptor) is on record?
Answer: 11 µM
